Earlier results on 1 compound are cited in patent US20140350454A1, “IRRADIATION APPARATUS” (Photocure ASA, priority 2011, published 2014).

Read-outs that look alike come from different tables or passages of the source.

Data set [1] concerns VIN. As to conditions: VIN patients, topical 5-ALA 20% w/w in Unguentum Merck, 4 hours incubation, 630 nm non-laser light.
Data set [2] relates to lesions of VIN 1-3. As to conditions: 25 patients, 111 lesions of VIN 1-3; 10 ml 5-ALA solution 20% w/w in saline, 4-5 hours under occlusion; 635 nm laser, 100 J/cm^2, 150 mW/cm^2; repeated PDT.
Data set [3] deals with VIN. As to conditions: bioadhesive patch 38 mg/cm^2 5-ALA in dry form, in situ 4-6 hours; 630 nm non-laser lamp, 20-30 min, 100 J/cm^2; repeated PDT.

`NCC(=O)CCC(=O)O` [5-ALA, 5-aminolevulinic acid]: in data set [1] (light dose 50 J/cm^2), the response rate result is reported as “unacceptably low”. The figures for the clearance rate in data set [1] (light dose 100 J/cm^2) and in data set [3] were 40-60% and 52%, respectively. The “complete response (of the patients)” value in data set [2] is reported as 52%.
